Data reported in patent publication US8648092B2, “Imidazo[1,2-a]pyridine derivatives: preparation and pharmaceutical applications” (MEI Pharma, priority 2005, dated 2014).

Legend:
[1] = molecular target: HDAC1 enzyme (recombinant GST-HDAC1) (Homo sapiens (Human), UniProt Q13547); test: In vitro HDAC assay for determination of IC50 values (BIOMOL fluorescent-based HDAC activity assay); type: biochemical; details: Flur de lys substrate, 2 h room temperature, read-out: IC50 (HDAC 1)
Procedure, shortened: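 Recombinant human GST-HDAC1, baculovirus-expressed in SF9 cells and glutathione-purified, tested with a fluorogenic deacetylase substrate; Fluor de Lys developer added for 10 min. Fluorescence at 360 nm excitation/460 nm emission; IC50 fitted from a concentration series.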

Colo205 cells = test: Cell-based proliferation assay for determination of GI50 values (CyQUANT); design: species or system human
Procedure, shortened: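 Colo205 cells in RPMI 1640 with 5% FBS, seeded 5000/well and grown 24 h at 37 °C. Exposure to compound lasted 96 h, with growth read by CyQUANT. GI50 = concentration giving 50% growth inhibition, from dose-response curves.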

[2] = Homo sapiens, COLO 205, 96 h treatment
[3] = Homo sapiens, COLO 205, 96 h, 96 h treatment

HDAC1 enzyme (recombinant GST-HDAC1), sequence (Q13547 whole entry): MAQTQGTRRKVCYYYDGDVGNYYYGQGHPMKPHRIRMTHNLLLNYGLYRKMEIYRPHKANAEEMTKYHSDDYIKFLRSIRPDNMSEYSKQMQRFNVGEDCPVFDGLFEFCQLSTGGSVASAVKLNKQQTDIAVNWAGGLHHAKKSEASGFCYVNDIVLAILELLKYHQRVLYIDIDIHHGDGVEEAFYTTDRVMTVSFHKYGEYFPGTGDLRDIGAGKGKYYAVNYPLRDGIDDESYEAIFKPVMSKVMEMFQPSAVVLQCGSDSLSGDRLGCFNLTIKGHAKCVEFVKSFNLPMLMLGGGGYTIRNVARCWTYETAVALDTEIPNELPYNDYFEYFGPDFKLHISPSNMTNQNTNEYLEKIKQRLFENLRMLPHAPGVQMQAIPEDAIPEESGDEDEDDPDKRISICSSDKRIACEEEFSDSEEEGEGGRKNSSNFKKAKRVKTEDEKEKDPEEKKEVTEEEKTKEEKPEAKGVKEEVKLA

Row | SMILES | IC50 [1] [nM] | GI50 (Colo205 cells; [2]) [nM] | GI50 (Colo205 cells; [3]) [nM] | GI50 (Colo205 cells; 96 h treatment) [nM]
1 | CCN(Cc1c(C(C)(C)C)nc2cc(/C=C/C(=O)NO)ccn12)CC1CC1 [Compound 97, 3-{2-tert-Butyl-3-[(cyclopropylmethyl-ethyl-amino)-methyl]-imidazo[1,2-a]pyridin-7-yl}-N-hydroxy-acrylamide] | 330 | 2100 |  | 
2 | CC1CN(Cc2c(-c3ccccc3)nc3cc(/C=C/C(=O)NO)ccn23)CC(C)O1 (stereo not shown) [Compound 55, 3-[3-(2,6-Dimethyl-morpholin-4-ylmethyl)-2-phenyl-imidazo[1,2-a]pyridin-7-yl]-N-hydroxy-acrylamide] | 2400 | 9300 |  | 
3 | CCc1nc2cc(/C=C/C(=O)NO)ccn2c1CNC(C)(C)C [Compound 137, 3-[3-(tert-Butylamino-methyl)-2-ethyl-imidazo[1,2-a]pyridin-7-yl]-N-hydroxy-acrylamide] | 30 | 260 |  | 
4 | CCN(CCC(C)(C)C)Cc1c(C(C)(C)C)nc2cc(/C=C/C(=O)NO)ccn12 [Compound 92, 3-(2-tert-Butyl-3-{[(3,3-dimethyl-butyl)-ethyl-amino]-methyl}-imidazo[1,2a]pyridin-7-yl)-N-hydroxy-acrylamide] | 70 |  | 480 | 
5 | CCCCCCc1nc2cc(/C=C/C(=O)NO)ccn2c1NCCC(=O)N(CCC)CCO [Compound 33, 3-(2-Hexyl-3-{2-[(2-hydroxy-ethyl)-propyl-carbamoyl]-ethylamino}-imidazo[1,2-a]pyridin-7-yl)-N-hydroxy-acrylamide] | 830 | 27000 |  | 
6 | CCN(CCCSC)Cc1c(C(C)(C)C)nc2cc(/C=C/C(=O)NO)ccn12 [Compound 95, 3-(2-tert-Butyl-3-{[ethyl-(3-methylsulfanyl-propyl)-amino]-methyl}-imidazo[1,2-a]pyridin-7-yl)-N-hydroxy-acrylamide] | 90 | 600 |  | 
7 | CC(C)CCc1nc2cc(/C=C/C(=O)NO)ccn2c1CNC(C)(C)C [Compound 140, 3-[3-(tert-Butylamino-methyl)-2-(3-methyl-butyl)-imidazo[1,2-a]pyridin-7-yl]-N-hydroxy-acrylamide] | 20 | 100 |  | 
8 | CCCCCCc1nc2cc(/C=C/C(=O)NO)ccn2c1NCCC(=O)NC [Compound 36, 3-[2-Hexyl-3-(2-methylcarbamoyl-ethylamino)-imidazo[1,2-a]pyridin-7-yl]-N-hydroxy-acrylamide] | 390 | 14000 |  | 
9 | CCCN(CC)Cc1c(C(C)(C)C)nc2cc(/C=C/C(=O)NO)ccn12 [Compound 82, 3-{2-tert-Butyl-3-[(ethyl-propyl-amino)-methyl]-imidazo[1,2-a]pyridin-7-yl}-N hydroxy-acrylamide] | 270 | 1800 |  | 
10 | CCN1CCN(Cc2c(-c3ccccc3)nc3cc(/C=C/C(=O)NO)ccn23)CC1 [Compound 57, 3-[3-(4-Ethyl-piperazin-1-ylmethyl)-2-phenyl-imidazo[1,2-a]pyridin-7-yl]-N-hydroxy-acrylamide] | 4600 | 14000 |  | 
11 | CCCc1nc2cc(/C=C/C(=O)NO)ccn2c1CN(CC)CCC(C)C [Compound 126, 3-(3-{[Ethyl-(3-methyl-butyl)-amino]-methyl}-2-propyl-imidazo[1,2-a]pyridin-7-yl)-N-hydroxy-acrylamide] | 30 | 80 |  | 
12 | CCCCCc1nc2cc(/C=C/C(=O)NO)ccn2c1CNC(C)(C)C [Compound 128, 3-[3-(tert-Butylamino-methyl)-2-pentyl-imidazo[1,2-a]pyridin-7-yl]-N-hydroxy-acrylamide] | 20 | 70 |  | 
13 | CCCCCCc1nc2cc(/C=C/C(=O)NO)ccn2c1NCCC(=O)NCC [Compound 29, 3-[3-(2-Ethylcarbamoyl-ethylamino)-2-hexyl-imidazo[1,2-a]pyridin-7-yl]-N-hydroxy-acrylamide] | 380 | 2100 |  | 
14 | CC(C)(C)NCc1c(C(C)(C)C)nc2cc(/C=C/C(=O)NO)ccn12 [Compound 69, 3-[2-tert-Butyl-3-(tert-butylamino-methyl)-imidazo[1,2-a]pyridin-7-yl]-N-hydroxy-acrylamide] | 130 | 740 |  | 
15 | CCN(CCOC)Cc1c(-c2ccccc2)nc2cc(/C=C/C(=O)NO)ccn12 [Compound 56, 3-(3-{[Ethyl-(2-methoxy-ethyl)-amino]-methyl}-2-phenyl-imidazo[1,2-a]pyridin-7-yl)-N-hydroxy-acrylamide] | 1600 | 9000 |  | 
16 | O=C(C=Cc1ccc2nc(CCc3ccccc3)c(NCc3ccc4c(c3)OCO4)n2c1)NO [Compound 2, 3-{3-[(Benzo[1,3]-dioxol-5-ylmethyl)-amino]-2-phenethyl-imidazo[1,2-a]pyridin-6-yl}-N-hydroxyacrylamide] | 720 | 3900 |  | 
17 | CCCCc1nc2cc(/C=C/C(=O)NO)ccn2c1CN(CC)CC [Compound 75, 3-(2-Butyl-3-diethylaminomethyl-imidazo[1,2-a]pyridin-7-yl)-N-hydroxy-acrylamide] | 180 | 680 |  | 
18 | CCCc1nc2cc(/C=C/C(=O)NO)ccn2c1CN(CC)CCC(C)(C)C [Compound 127, 3-(3-{[(3,3-Dimethyl-butyl)-ethyl-amino]-methyl}-2-propyl-imidazo[1,2-a]pyridin-7-yl)-N-hydroxy-acrylamide] | 20 |  | 70 | 
19 | CC(C)(C)CNCc1c(-c2ccccc2)nc2cc(/C=C/C(=O)NO)ccn12 [Compound 59, 3-{3-[(2,2-Dimethyl-propylamino)-methyl]-2-phenyl-imidazo[1,2-a]pyridin-7-yl}-N-hydroxy-acrylamide] | 230 | 2100 |  | 

Further lines, results first:

Row | IC50 [1] [nM] | GI50 (Colo205 cells; [2]) [nM] | GI50 (Colo205 cells; [3]) [nM] | GI50 (Colo205 cells; 96 h treatment) [nM] | SMILES
20 | 40 | 160 |  |  | CCCCN(CC)Cc1c(CCC(C)C)nc2cc(/C=C/C(=O)NO)ccn12 [Compound 141, 3-[3-[(Butyl-ethyl-amino)-methyl]-2-(3-methyl-butyl)-imidazo[1,2a]pyridin-7-yl]-N-hydroxy-acrylamide]
21 | 50 | 160 |  |  | CCN(CCC(C)(C)C)Cc1c(C)nc2cc(/C=C/C(=O)NO)ccn12 [Compound 125, 3-(3-{[(3,3-Dimethyl-butyl)-ethyl-amino]-methyl}-2-methyl-imidazo[1,2-a]pyridin-7-yl)-N-hydroxyacrylamide]
22 | 50 | 520 |  |  | CCN(CCC(C)(C)C)Cc1c(-c2ccccc2)nc2cc(/C=C/C(=O)NO)ccn12 [Compound 122, 3-(3-{[(3,3-Dimethyl-butyl)-ethyl-amino]-methyl}-2-phenyl-imidazo[1,2-a]pyridin-7-yl)-N-hydroxy-acrylamide]
23 | 140 | 7900 |  |  | C#CCNC(=O)CCNc1c(CCCCCC)nc2cc(/C=C/C(=O)NO)ccn12 [Compound 26, 3-[2-Hexyl-3-(2-prop-2-ynylcarbamoyl-ethylamino)-imidazo[1,2-a]pyridin-7-yl]-N-hydroxy-acrylamide]
24 | 80 |  |  | 490 | CCCCc1nc2cc(/C=C/C(=O)NO)ccn2c1CN(CC)CC(C)CCC (stereo not shown) [Compound 116, 3-(2-Butyl-3-{[ethyl-(2-methyl-pentyl)-amino]-methyl}-imidazo[1,2-a]pyridin-7-yl)-N-hydroxy-acrylamide]
25 | 880 | 3900 |  |  | CCCCCCc1nc2cc(/C=C/C(=O)NO)ccn2c1NCCC(=O)N(C)C [Compound 30, 3-[3-(2-Dimethylcarbamoyl-ethylamino)-2-hexyl-imidazo[1,2-a]pyridin-7-yl]-N-hydroxy-acrylamide]
26 | 780 | 6300 |  |  | CN(Cc1c(C(C)(C)C)nc2cc(C=CC(=O)NO)ccn12)CC(C)(C)C [Compound 104, 3-(2-tert-Butyl-3-{[(2,2-dimethyl-propyl)-methyl-amino]-methyl}-imidazo[1,2-a]pyridin-7-yl)-N-hydroxy-acrylamide]
27 | 7400 | 44000 |  |  | CCN(Cc1c(-c2ccccc2)nc2cc(/C=C/C(=O)NO)ccn12)CC(F)(F)F [Compound 105, 3-(3-{[Ethyl-(2,2,2-trifluoro-ethyl)-amino]-methyl}-2-phenyl-imidazo [1,2-a]pyridin-7-yl)-N-hydroxy-acrylamide]
28 | 1300 | 2500 |  |  | Cc1cn2ccc(/C=C/C(=O)NO)cc2n1 [Compound 41, N-Hydroxy-3-(2-methyl-imidazo[1,2-a]pyridin-7-yl)-acrylamide]
29 | 190 | 970 |  |  | CCC(CC)CN(CC)Cc1c(C(C)(C)C)nc2cc(/C=C/C(=O)NO)ccn12 [Compound 93, 3-(2-tert-Butyl-3-{[ethyl-(2-ethyl-butyl)-amino]-methyl}-imidazo[1,2-a]pyridin-7-yl)-N-hydroxy-acrylamide]
30 | 220 | 1700 |  |  | CCCCN(C)Cc1c(C(C)(C)C)nc2cc(/C=C/C(=O)NO)ccn12 [Compound 106, 3-{2-tert-Butyl-3-[(butyl-methyl-amino)-methyl]-imidazo[1,2-a]pyridin-7-yl}-N-hydroxy-acrylamide]
31 | 6000 | > 10000 |  |  | CCc1nc2ccc(/C=C/C(=O)NO)cn2c1NCCOC [Compound 11, 3-[2-Ethyl-3-(2-methoxy-ethylamino)-imidazo[1,2-a]pyridin-6-yl]-N-hydroxy-acrylamide]
32 | 70 | 170 |  |  | CCCCc1nc2cc(/C=C/C(=O)NO)ccn2c1CN(C)CCCC [Compound 76, 3-{2-Butyl-3-[(butyl-methyl-amino)-methyl]-imidazo[1,2-a]pyridin-7-yl}-N-hydroxy-acrylamide]
